By IC50 is commonly meant the midpoint of a concentration-inhibition curve. Higher therefore signals lower potency.

The source of these data is patent US20070082880A1 (priority 2005, published 2007).

The test deals with T1, human PKCθ full length enzyme (Homo sapiens, UniProt Q04759).
T1 construct: human PKCθ full length enzyme (Panvera Catalog No. P2996); purchased Panvera P2996
T1 sequence (Q04759 whole entry): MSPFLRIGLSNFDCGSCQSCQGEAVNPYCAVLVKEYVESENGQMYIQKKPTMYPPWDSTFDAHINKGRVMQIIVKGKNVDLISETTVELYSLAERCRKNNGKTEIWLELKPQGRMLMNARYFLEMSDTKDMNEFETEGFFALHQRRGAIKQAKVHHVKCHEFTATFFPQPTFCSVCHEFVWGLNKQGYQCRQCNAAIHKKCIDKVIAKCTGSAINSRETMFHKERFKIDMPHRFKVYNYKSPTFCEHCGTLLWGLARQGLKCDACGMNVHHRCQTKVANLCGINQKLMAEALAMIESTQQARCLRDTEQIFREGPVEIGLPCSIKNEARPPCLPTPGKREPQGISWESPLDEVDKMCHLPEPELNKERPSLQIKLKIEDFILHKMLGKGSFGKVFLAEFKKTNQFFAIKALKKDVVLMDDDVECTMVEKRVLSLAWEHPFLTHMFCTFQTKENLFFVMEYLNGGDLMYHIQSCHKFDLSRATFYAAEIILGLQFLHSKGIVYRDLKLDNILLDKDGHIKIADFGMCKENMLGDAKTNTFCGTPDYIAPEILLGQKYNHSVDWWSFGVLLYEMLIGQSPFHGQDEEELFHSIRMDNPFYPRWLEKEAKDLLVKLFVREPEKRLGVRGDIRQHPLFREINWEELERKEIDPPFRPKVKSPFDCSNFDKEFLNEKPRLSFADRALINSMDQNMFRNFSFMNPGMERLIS
Briefly: PKCθ IMAP Assay. Format: biochemical. Particulars: average value when one or more samples were tested; ATP 6 uM, PKCθ 1 nM. In short, it runs like this: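 Full-length human PKCθ (1 nM final) with 6 uM ATP and 100 nM 5FAM-labelled peptide, 5% DMSO, 3.0 mM DTT in reaction buffer. 25 min at room temperature; IMAP bead binding 20 min, fluorescence polarization read. Compounds 2:1 serially diluted; no-ATP and no-enzyme wells as controls.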
Compound `Cc1c(Nc2c(C#N)cnc3sc(-c4cnc(N5CCOCC5)nc4)cc23)ccc2[nH]ccc12` [Compound 330, 4-[(4-methyl-1H-indol-5-yl)amino]-2-(2-morpholin-4-ylpyrimidin-5-yl)thieno[2,3-b]pyridine-5-carbonitrile] yielded a half-maximal inhibitory concentration (IC50) of 0.069 µM.

In the case of `Cc1c(Nc2c(C#N)cnc3sc(-c4cnc(N(C)C)nc4)cc23)ccc2[nH]ccc12` [Compound 331, 2-[2-(dimethylamino)pyrimidin-5-yl]-4-[(4-methyl-1H-indol-5-yl)amino]thieno[2,3-b]pyridine-5-carbonitrile], the IC50 is more than 25 µM. Then `CCOc1ccccc1-c1cc2c(Nc3ccc4[nH]ccc4c3C)c(C#N)cnc2s1` [Compound 332, 2-(2-ethoxyphenyl)-4-[(4-methyl-1H-indol-5-yl)amino]thieno[2,3-b]pyridine-5-carbonitrile], with 0.437 µM. Then `COC(=O)Nc1ccc(-c2cc3c(Nc4ccc5[nH]ccc5c4C)c(C#N)cnc3s2)cc1` [Compound 333, methyl (4-{5-cyano-4-[(4-methyl-1H-indol-5-yl)amino]thieno[2,3-b]pyridin-2-yl}phenyl)carbamate], with 0.616 µM. In the case of `CCCCNC(=O)Nc1ccc(-c2cc3c(Nc4ccc5[nH]ccc5c4)c(C#N)cnc3s2)cc1` [Compound 334, N-butyl-N′-{4-[5-cyano-4-(1H-indol-5-ylamino)thieno[2,3-b]pyridin-2-yl]phenyl}urea] it was more than 12.5 µM; in that of `CN(C)CCNC(=O)c1cccc(-c2cc3c(Nc4ccc5[nH]ccc5c4)c(C#N)cnc3s2)c1` [Compound 335, 3-[5-cyano-4-(1H-indol-5-ylamino)thieno[2,3-b]pyridin-2-yl]-N-[2-(dimethylamino)ethyl]benzamide], 0.124 µM. As to `N#Cc1cnc2sc(-c3cscc3C=O)cc2c1Nc1ccc2[nH]ccc2c1` [Compound 336, 2-(4-formyl-3-thienyl)-4-(1H-indol-5-ylamino)thieno[2,3-b]pyridine-5-carbonitrile], half-maximal inhibition (IC50) required 0.051 µM. For `COc1ccc(-c2cc3c(Nc4ccc5[nH]ccc5c4)c(C#N)cnc3s2)cc1C=O` [Compound 337, 2-(3-formyl-4-methoxyphenyl)-4-(1H-indol-5-ylamino)thieno[2,3-b]pyridine-5-carbonitrile], it took 0.136 µM to reach half-maximal inhibition (IC50). Then `COc1ccc(C=O)cc1-c1cc2c(Nc3ccc4[nH]ccc4c3C)c(C#N)cnc2s1` [Compound 338, 2-(5-formyl-2-methoxyphenyl)-4-[(4-methyl-1H-indol-5-yl)amino]thieno[2,3-b]pyridine-5-carbonitrile], with 0.014 µM; and `Cc1c(Nc2c(C#N)cnc3sc(-c4cccc(C(=O)NCCN(C)C)c4)cc23)ccc2[nH]ccc12` [Compound 339, 3-{5-cyano-4-[(4-methyl-1H-indol-5-yl)amino]thieno[2,3-b]pyridin-2-yl}-N-[2-(dimethylamino)ethyl]benzamide], with 0.009 µM.

On to `CC(=O)c1cccc(-c2cc3c(Nc4ccc5[nH]ccc5c4C)c(C#N)cnc3s2)c1` [Compound 340, 2-(3-acetylphenyl)-4-[(4-methyl-1H-indol-5-yl)amino]thieno[2,3-b]pyridine-5-carbonitrile], for which the IC50 was found to be 0.026 µM. In the case of `COC(=O)Nc1ccc(-c2cc3c(Nc4ccc5[nH]ccc5c4)c(C#N)cnc3s2)cc1` [Compound 342, methyl {4-[5-cyano-4-(1H-indol-5-ylamino)thieno[2,3-b]pyridin-2-yl]phenyl}carbamate] it was 0.47 µM; in that of `CNS(=O)(=O)c1cccc(-c2cc3c(Nc4ccc5[nH]ccc5c4C)c(C#N)cnc3s2)c1` [Compound 343, 3-{5-cyano-4-[(4-methyl-1H-indol-5-yl)amino]thieno[2,3-b]pyridin-2-yl}-N-methylbenzenesulfonamide], 0.03 µM; in that of `CON(C)C(=O)c1cccc(-c2cc3c(Nc4ccc5[nH]ccc5c4)c(C#N)cnc3s2)c1` [Compound 344, 3-[5-cyano-4-(1H-indol-5-ylamino)thieno[2,3-b]pyridin-2-yl]-N-methoxy-N-methylbenzamide], 0.818 µM. In the case of `Cc1c(Nc2c(C#N)cnc3sc(-c4ccc(S(=O)(=O)NCCN(C)C)cc4)cc23)ccc2[nH]ccc12` [Compound 345, 4-{5-cyano-4-[(4-methyl-1H-indol-5-yl)amino]thieno[2,3-b]pyridin-2-yl}-N-[2-(dimethylamino)ethyl]benzenesulfonamide] it was 0.031 µM; in that of `Cc1c(Nc2c(C#N)cnc3sc(-c4ccc(S(=O)(=O)N(C)CCN(C)C)cc4)cc23)ccc2[nH]ccc12` [Compound 346, 4-{5-cyano-4-[(4-methyl-1H-indol-5-yl)amino]thieno[2,3-b]pyridin-2-yl}-N-[2-(dimethylamino)ethyl]-N-methylbenzenesulfonamide], 0.048 µM. Then `Cc1c(Nc2c(C#N)cnc3sc(-c4cccc(C(C)N(C)C)c4)cc23)ccc2[nH]ccc12` (stereo not drawn) [Compound 347, 2-{3-[1-(dimethylamino)ethyl]phenyl}-4-[(4-methyl-1H-indol-5-yl)amino]thieno[2,3-b]pyridine-5-carbonitrile], with 0.013 µM; and `Cc1c(Nc2c(C#N)cnc3sc(-c4cccc(C(=O)N(C)CCN(C)C)c4)cc23)ccc2[nH]ccc12` [Compound 348, 3-{5-cyano-4-[(4-methyl-1H-indol-5-yl)amino]thieno[2,3-b]pyridin-2-yl}-N-[2-(dimethylamino)ethyl]-N-methylbenzamide], with 0.018 µM. Compound `Cc1c(Nc2c(C#N)cnc3sc(-c4ccc(C(=O)NCCN(C)C)cc4)cc23)ccc2[nH]ccc12` [Compound 349, 4-{5-cyano-4-[(4-methyl-1H-indol-5-yl)amino]thieno[2,3-b]pyridin-2-yl}-N-[2-(dimethylamino)ethyl]benzamide] came in with an IC50 of 0.016 µM. In the case of `Cc1c(Nc2c(C#N)cnc3sc(-c4ccc(OCCCN(C)C)nc4)cc23)ccc2[nH]ccc12` [Compound 350, 2-{6-[3-(dimethylamino)propoxy]pyridin-3-yl}-4-[(4-methyl-1H-indol-5-yl)amino]thieno[2,3-b]pyridine-5-carbonitrile] it was 0.034 µM. In the case of `Cc1c(Nc2c(C#N)cnc3sc(-c4ccc(OCCCl)cc4)cc23)ccc2[nH]ccc12` [Compound 351, 2-[4-(2-chloroethoxy)phenyl]-4-[(4-methyl-1H-indol-5-yl)amino]thieno[2,3-b]pyridine-5-carbonitrile] it was 0.12 µM. In the case of `Cc1c(Nc2c(C#N)cnc3sc(-c4ccc(NCCN5CCOCC5)nc4)cc23)ccc2[nH]ccc12` [Compound 352, 4-[(4-methyl-1H-indol-5-yl)amino]-2-{6-[(2-morpholin-4-ylethyl)amino]pyridin-3-yl}thieno[2,3-b]pyridine-5-carbonitrile], the IC50 came to 0.023 µM. Against the preceding compound, the IC50 is about 5.2-fold lower. Then `Cc1c(Nc2c(C#N)cnc3sc(-c4cccc(C(=O)N(C)C)c4)cc23)ccc2[nH]ccc12` [Compound 353, 3-{5-cyano-4-[(4-methyl-1H-indol-5-yl)amino]thieno[2,3-b]pyridin-2-yl}-N,N-dimethylbenzamide], with 0.036 µM; and `CON(C)C(=O)c1cccc(-c2cc3c(Nc4ccc5[nH]ccc5c4C)c(C#N)cnc3s2)c1` [Compound 354, 3-{5-cyano-4-[(4-methyl-1H-indol-5-yl)amino]thieno[2,3-b]pyridin-2-yl}-N-methoxy-N-methylbenzamide], with 0.018 µM; and `CON(C)C(=O)c1ccc(-c2cc3c(Nc4ccc5[nH]ccc5c4C)c(C#N)cnc3s2)cc1` [Compound 357, 4-{5-cyano-4-[(4-methyl-1H-indol-5-yl)amino]thieno[2,3-b]pyridin-2-yl}-N-methoxy-N-methylbenzamide], with 0.048 µM. As to `CONC(=O)c1ccc(-c2cc3c(Nc4ccc5[nH]ccc5c4C)c(C#N)cnc3s2)cc1` [Compound 358, 4-{5-cyano-4-[(4-methyl-1H-indol-5-yl)amino]thieno[2,3-b]pyridin-2-yl}-N-methoxybenzamide], the IC50 came out at 0.01 µM.

The compound `CS(=O)(=O)Nc1cccc(-c2cc3c(Nc4ccc5[nH]ccc5c4)c(C#N)cnc3s2)c1` [Compound 359, N-{3-[5-cyano-4-(1H-indol-5-ylamino)thieno[2,3-b]pyridin-2-yl]phenyl}methanesulfonamide] showed an IC50 of 0.245 µM. Then `Cc1c(Nc2c(C#N)cnc3sc(-c4cccc(NS(C)(=O)=O)c4)cc23)ccc2[nH]ccc12` [Compound 360, N-(3-{5-cyano-4-[(4-methyl-1H-indol-5-yl)amino]thieno[2,3-b]pyridin-2-yl}phenyl)methanesulfonamide], with 0.023 µM.

Compound `Cc1c(Nc2c(C#N)cnc3sc(-c4ccc(NS(C)(=O)=O)cc4)cc23)ccc2[nH]ccc12` [Compound 361, N-(4-{5-cyano-4-[(4-methyl-1H-indol-5-yl)amino]thieno[2,3-b]pyridin-2-yl}phenyl)methanesulfonamide] yielded an IC50 of 0.043 µM.

Compound `Cc1c(Nc2c(C#N)cnc3sc(-c4ccc5ccccc5c4)cc23)ccc2[nH]ccc12` [Compound 362, 4-[(4-methyl-1H-indol-5-yl)amino]-2-(2-naphthyl)thieno[2,3-b]pyridine-5-carbonitrile] showed an IC50 of 0.072 µM. The compound `Cc1c(Nc2c(C#N)cnc3sc(-c4cccc5ccccc45)cc23)ccc2[nH]ccc12` [Compound 363, 4-[(4-methyl-1H-indol-5-yl)amino]-2-(1-naphthyl)thieno[2,3-b]pyridine-5-carbonitrile] showed an IC50 of 0.401 µM.

On to `COc1ccccc1-c1cc2c(Nc3ccc4[nH]ccc4c3C)c(C#N)cnc2s1` [Compound 364, 2-(2-methoxyphenyl)-4-[(4-methyl-1H-indol-5-yl)amino]thieno[2,3-b]pyridine-5-carbonitrile], for which the IC50 came out at 0.022 µM. Against the preceding compound, the IC50 is about 18-fold lower. Then `Cc1c(Nc2c(C#N)cnc3sc(-c4cc(C=O)cc(OC(C)C)c4)cc23)ccc2[nH]ccc12` [Compound 365, 2-(3-formyl-5-isopropoxyphenyl)-4-[(4-methyl-1H-indol-5-yl)amino]thieno[2,3-b]pyridine-5-carbonitrile], with 0.103 µM.
